Test results from BindingDB's records for doi:10.7270/Q2251GJ9 (The Scripps Research Institute Molecular Screening Center, 2007).

target: Sphingosine 1-phosphate receptor 1 (Homo sapiens, UniProt P21453); assay: direct activation of human S1P1 – cell-based, agonist mode, 60K MLSMR set, dose response (AID 468); details: not given
Sequence (P21453 whole entry): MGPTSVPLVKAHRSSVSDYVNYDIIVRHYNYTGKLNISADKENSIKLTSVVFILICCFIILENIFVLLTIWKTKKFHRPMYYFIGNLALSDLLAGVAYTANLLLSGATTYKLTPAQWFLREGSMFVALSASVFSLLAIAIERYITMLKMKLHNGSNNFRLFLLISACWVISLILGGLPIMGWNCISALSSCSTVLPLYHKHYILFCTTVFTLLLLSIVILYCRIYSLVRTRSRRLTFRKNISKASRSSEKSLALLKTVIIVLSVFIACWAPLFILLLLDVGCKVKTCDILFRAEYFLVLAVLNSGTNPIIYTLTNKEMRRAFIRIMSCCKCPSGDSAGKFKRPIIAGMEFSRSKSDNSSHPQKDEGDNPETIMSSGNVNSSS

First: CCOC(=O)c1oc2cc(O)c(CC)cc2c(=O)c1-c1ccc2c(c1)OCCO2 [3-(2,3-dihydro-1,4-benzodioxin-6-yl)-6-ethyl-7-hydroxy-4-keto-chromene-2-carboxylic acid ethyl ester]
Second: Cc1cc(C(=O)CSc2nc3ccccc3c(=O)n2C)c(C)n1Cc1ccc2c(c1)OCO2 [2-[2-[1-(1,3-benzodioxol-5-ylmethyl)-2,5-dimethyl-pyrrol-3-yl]-2-oxidanylidene-ethyl]sulfanyl-3-methyl-quinazolin-4-one]
The EC50 of the first is higher: > 10 µM for the first, 5.41 µM for the second.

Compared with `CN=C(NC#N)SCC(=O)c1ccc(Cl)cc1Cl` [[2-(2,4-dichlorophenyl)-2-oxidanylidene-ethyl] N-cyano-N'-methyl-carbamimidothioate], `CC(C)(C)NC(=O)CSc1ncnc2c1nnn2Cc1ccccc1Cl` [MLS000034488] is 2.1-fold higher in EC50: 4.55 µM for the first, 9.4 µM for the second. The first is the more potent here.

`CCOC(=O)C1C(=O)C=C(c2ccc(OC)cc2)CC1c1ccco1` (centres undefined) [6-(2-furanyl)-4-(4-methoxyphenyl)-2-oxo-1-cyclohex-3-enecarboxylic acid ethyl ester] and `CCOC(=O)CN(C(=O)CSc1nnc(-c2cccc(OC)c2)o1)c1ccc(F)cc1` [((4-Fluoro-phenyl)-{2-[5-(3-methoxy-phenyl)-[1,3,4]oxadiazol-2-ylsulfanyl]-acetyl}-amino)-acetic acid ethyl ester] are within 1.5-fold of each other in EC50: 3.51 µM for the first, 3.17 µM for the second.

`CCCCn1ccnc1C(=O)c1cccc(S(=O)(=O)N2c3ccccc3CC2C)c1` (centres undefined) [(1-butyl-2-imidazolyl)-[3-[(2-methyl-2,3-dihydroindol-1-yl)sulfonyl]phenyl]methanone] and `CC(C)(C)OC(=O)N[C@@H](Cc1ccccc1)c1nnc(S(=O)(=O)Cc2cccc(F)c2)o1` [tert-butyl N-[(1S)-1-[5-[(3-fluorophenyl)methylsulfonyl]-1,3,4-oxadiazol-2-yl]-2-phenylethyl]carbamate] are within 1.5-fold of each other in EC50: 9.34 µM for the first, 8.51 µM for the second.

Going from `O=C(Nc1ccc(N2CCCCC2)c(Cl)c1)c1nnc[nH]1` to `O=C(CSCC(=O)N1CCCCC1)Nc1nc(-c2cccs2)cs1` [2-(2-oxidanylidene-2-piperidin-1-yl-ethyl)sulfanyl-N-(4-thiophen-2-yl-1,3-thiazol-2-yl)ethanamide], the EC50 rises from 0.857 µM to > 30 µM.

`Oc1ccc(-c2nc(-c3ccc(O)c(O)c3)cs2)cc1` and `Oc1ccc(-c2nnc(-c3ccc(O)cc3)nn2)cc1` [4,4'-(1,2,4,5-tetrazine-3,6-diyl)diphenol] cannot be ordered by EC50: 12 µM for the first, > 10 µM for the second.

First: CCCC(=O)Nc1ccc2oc(-c3ccc(OC)c(Br)c3)nc2c1 [MLS000042482]
Second: CCOc1ccc(-c2nc(-c3ccccc3)no2)cc1OCC [5-(3,4-diethoxyphenyl)-3-phenyl-1,2,4-oxadiazole]
The EC50 of the first is 34-fold higher: 4.96 µM for the first, 0.147 µM for the second. The second is the more potent here.

First: O=S(=O)(NCc1ccncc1)c1ccc(Br)s1 [5-bromanyl-N-(pyridin-4-ylmethyl)thiophene-2-sulfonamide]
Second: O=S(=O)(NCc1cn2ccsc2n1)c1ccc(Oc2ccccc2)cc1 [MLS000094195]
The EC50 of the first is 2.3-fold lower: 2.63 µM for the first, 6.07 µM for the second.

First: Cc1ccc(-c2nnc(SCc3ccccc3F)o2)cc1 [2-[(2-fluorobenzyl)thio]-5-(4-methylphenyl)-1,3,4-oxadiazole]
Second: O=C(CSc1nnc(-c2c[nH]c3ccccc23)o1)N1c2ccccc2CCc2ccccc21
The EC50 of the first is 4-fold lower: 1.78 µM for the first, 7.07 µM for the second.

`Cc1cccc(N2CCN(C(=O)CSCc3c(C)noc3C)CC2)c1C` [2-[(3,5-dimethyl-1,2-oxazol-4-yl)methylsulfanyl]-1-[4-(2,3-dimethylphenyl)piperazin-1-yl]ethanone] and `Cc1nnc(SCC(=O)N2CCC(c3noc4ccc(F)cc34)CC2)s1` [1-[4-(5-fluoranyl-1,2-benzoxazol-3-yl)piperidin-1-yl]-2-[(5-methyl-1,3,4-thiadiazol-2-yl)sulfanyl]ethanone] are within 1.5-fold of each other in EC50: 4.52 µM for the first, 4.27 µM for the second.

`N#Cc1nc(-c2ccc(OCc3ccccc3)cc2)oc1NCc1cccnc1` [2-(4-benzoxyphenyl)-5-(3-pyridylmethylamino)oxazole-4-carbonitrile] and `COCCN(C(=O)c1ccccc1)c1nnc(-c2cccnc2)s1` [MLS000032523] are within 1.5-fold of each other in EC50: 7.92 µM for the first, 6.68 µM for the second.

First: O=C(Nc1nc2c(s1)CCCC2)c1cc2n(n1)C(C(F)(F)F)CC(C1CC1)N2 (centres undefined) [5-Cyclopropyl-7-trifluoromethyl-4,5,6,7-tetrahydro-pyrazolo[1,5-a]pyrimidine-2-carboxylic acid (4,5,6,7-tetrahydro-benzothiazol-2-yl)-amide]
Second: CN(CC1CCCO1)S(=O)(=O)c1ccc(C(=O)Nc2nc(-c3ccccn3)cs2)cc1 (centres undefined) [4-[methyl(2-oxolanylmethyl)sulfamoyl]-N-[4-(2-pyridinyl)-2-thiazolyl]benzamide]
The EC50 of the first is lower: 0.996 µM for the first, > 10 µM for the second. The first is the more potent here.

Compared with `Cc1cc(C(=O)CSc2nnc(-c3ccncc3)n2-c2ccccc2)c(C)n1C` [2-[(4-phenyl-5-pyridin-4-yl-1,2,4-triazol-3-yl)sulfanyl]-1-(1,2,5-trimethylpyrrol-3-yl)ethanone], `CCOc1ccc(S(=O)(=O)n2cnc3cc(C)c(C)cc32)cc1` [1-(4-Ethoxy-benzenesulfonyl)-5,6-dimethyl-1H-benzoimidazole] is 2.7-fold higher in EC50: 2.46 µM for the first, 6.73 µM for the second.

In the case of `O=C(Oc1cccc(C(=O)N2CCOCC2)c1)c1ccc(Br)cc1` [(3-morpholin-4-ylcarbonylphenyl) 4-bromanylbenzoate], the EC50 is reported as > 95 µM.

same assay, conditions: inactive by the depositor's call

In order of rising EC50:
1. Cc1ccc(Cl)cc1N1CCN(C(=O)COc2ccc(S(=O)(=O)NC(C)C)cc2)CC1 [4-[2-[4-(5-chloranyl-2-methyl-phenyl)piperazin-1-yl]-2-oxidanylidene-ethoxy]-N-propan-2-yl-benzenesulfonamide]  12 µM
2. CCNc1nc2c(c(=O)n(C)c(=O)n2C)n1Cc1ccc(Cl)cc1 [7-(4-chlorobenzyl)-8-(ethylamino)-1,3-dimethyl-xanthine]  12.9 µM
3. CCCCOc1ccc(S(=O)(=O)Nc2cc(OC)ccc2OC)cc1 [4-butoxy-N-(2,5-dimethoxyphenyl)benzenesulfonamide]  12.9 µM
4. CC1=CC(C)(C)Nc2ccc(OC(=O)c3ccco3)cc21  13.3 µM
5. Cc1cccc(-c2nc(CSCC(=O)N3CCN(c4ccccn4)CC3)c(C)o2)c1 [1-[({[5-methyl-2-(3-methylphenyl)-1,3-oxazol-4-yl]methyl}thio)acetyl]-4-pyridin-2-ylpiperazine]  13.6 µM
6. CSc1ccc(S(=O)(=O)Nc2ccc3c(c2)OCCO3)cc1 [MLS000115922]  13.6 µM
7. CC(=O)Nc1ccc(S(=O)(=O)N2CCN(CCCOc3cc(C)ccc3C)CC2)cc1 [MLS000050317]  15.2 µM
8. Cc1cc(C(=O)COC(=O)c2csc3c2CCCC3)c(C)n1C [4,5,6,7-tetrahydro-1-benzothiophene-3-carboxylic acid [2-oxo-2-(1,2,5-trimethyl-3-pyrrolyl)ethyl] ester]  18.6 µM
9. CCCn1c(CN2CCN(c3cccc(Cl)c3)CC2)nc2c1c(=O)n(C)c(=O)n2C [8-[[4-(3-chlorophenyl)-1-piperazinyl]methyl]-1,3-dimethyl-7-propylpurine-2,6-dione]  20.3 µM
10. Cc1cc(C(=O)N2CCN(C(c3ccccc3)c3ccccc3)CC2)no1 [(4-benzhydrylpiperazin-1-yl)-(5-methyl-1,2-oxazol-3-yl)methanone]  25.5 µM
11. CC(C)C(c1nnnn1Cc1ccccc1)N(Cc1ccco1)Cc1cccs1 (centres undefined) [1-(1-benzyltetrazol-5-yl)-N-(furan-2-ylmethyl)-2-methyl-N-(thiophen-2-ylmethyl)propan-1-amine]  51.2 µM
12. Cc1noc(/C=C/N(C)C)c1S(=O)(=O)N1CCc2ccccc21 [(E)-2-[4-(2,3-dihydroindol-1-ylsulfonyl)-3-methyl-1,2-oxazol-5-yl]-N,N-dimethyl-ethenamine]  95 µM
